Experimental data reported in patent publication US8435970B2 (priority 2006, dated 2013).
≈ marks a conversion by molar mass, not a printed value. Where a name gives a salt, the structure may show the parent alone.

Legend:
[1] = system: Aurora (Histone H3 phosphorylation); test: Western blotting assay of downstream substrate phosphorylation; format: cell-based; details: western blot; concentration of inhibition
[2] = system: human tumour derived cell lines engrafted sub-cutaneously; details: nude mice, sub-cutaneous human tumour xenografts
[3] = system: primary human mammary epithelial cells; test: In vitro studies with normal cells; details: 24 h compound treatment, cf. tumor cells
OVCAR-3 tumour cells = details: concentrations of 50 and 100 microM; PKB amplified; cited from earlier work
[4] = Gravimetric vapour sorption (GVS); format: physicochemical; details: for hygroscopic behaviour (GVS isotherm): 0 to 95% RH, 25° C.
Experimental: E. Gravimetric Vapour Sorption (GVS):
The sample size was ca. 10-25 mg. […] The sample was loaded and unloaded at room humidity and temperature (ca. 40% RH, 25° C.) and analysed afterwards by XRPD (using a Bruker AXS C2 GADDS system).

[5] = citrate buffer, pH 4.5, aqueous buffer

SMILES: O=C(Nc1c[nH]nc1-c1nc2cc(CN3CCOCC3)ccc2[nH]1)NC1CC1
- Inhibition of Histone H3 phosphorylation (Aurora) [1]: 10 to 30 nM

SMILES: O=C(Nc1c[nH]nc1-c1nc2cc(CN3CCOCC3)ccc2[nH]1)NC1CC1 [compound of formula (I)]
- anti-tumour action as a single agent [2]: anti-tumour action
- effect on normal checkpoint competent cells [3]: reversible G2/M arrest

SMILES: O=S(=O)(NCCNCC=C(c1ccccc1)c1ccccc1)c1cccc2cnccc12 [NL-71-101]
- apoptosis induction (OVCAR-3 tumour cells): induced apoptosis

SMILES: O=C(Nc1c[nH]nc1-c1nc2cc(CN3CCOCC3)ccc2[nH]1)NC1CC1 [free base]
- hygroscopic behaviour (GVS isotherm) ([4]; listed as Free Base): hygroscopic
- sample weight difference between 0% R.H and 95% R.H. ([4]; GVS): approximately 9%
- solubility [5]: ~80 mg/mL (≈ 210 mM)

SMILES: O=C(Nc1c[nH]nc1-c1nc2cc(CN3CCOCC3)ccc2[nH]1)NC1CC1 [L-lactate salt]
- hygroscopic behaviour (GVS isotherm) [4]: does not display hygroscopic behaviour
